By IC50 is commonly meant the midpoint of a concentration-inhibition curve.

The text below walks through data of patent US7928140B2, “Benzothiazole PI3 kinase modulators for cancer treatment” (Amgen Inc., priority 2007, dated 2011).

One assay has as its target T1, PI3K α (Homo sapiens, UniProt P42336).
T1 construct: Full length p110 subunits of PI3K α, β and δ, N-terminally labeled with polyHis tag; polyHis (N); made in house; host or cells: Sf9 insect cells (baculovirus)
Briefly: In vitro PI3 kinase enzyme assay (alpha), ATP loss, bioluminescence.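 Further: purified p110α/p85 heterodimer acting on PtdIns(4,5)P2 at room temperature, remaining ATP read by luminescence, inhibition scaled between compound-free wells with and without enzyme.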 It is filed as biochemical. The following applies: read-out: PI3Kα ATP loss IC50.

A further assay deals with T2, PI3K β (Homo sapiens, UniProt P42338).
T2 construct: Full length p110 subunits of PI3K α, β and δ, N-terminally labeled with polyHis tag; polyHis (N); made in house; host or cells: Sf9 insect cells (baculovirus)
T2 sequence (P42338 whole entry): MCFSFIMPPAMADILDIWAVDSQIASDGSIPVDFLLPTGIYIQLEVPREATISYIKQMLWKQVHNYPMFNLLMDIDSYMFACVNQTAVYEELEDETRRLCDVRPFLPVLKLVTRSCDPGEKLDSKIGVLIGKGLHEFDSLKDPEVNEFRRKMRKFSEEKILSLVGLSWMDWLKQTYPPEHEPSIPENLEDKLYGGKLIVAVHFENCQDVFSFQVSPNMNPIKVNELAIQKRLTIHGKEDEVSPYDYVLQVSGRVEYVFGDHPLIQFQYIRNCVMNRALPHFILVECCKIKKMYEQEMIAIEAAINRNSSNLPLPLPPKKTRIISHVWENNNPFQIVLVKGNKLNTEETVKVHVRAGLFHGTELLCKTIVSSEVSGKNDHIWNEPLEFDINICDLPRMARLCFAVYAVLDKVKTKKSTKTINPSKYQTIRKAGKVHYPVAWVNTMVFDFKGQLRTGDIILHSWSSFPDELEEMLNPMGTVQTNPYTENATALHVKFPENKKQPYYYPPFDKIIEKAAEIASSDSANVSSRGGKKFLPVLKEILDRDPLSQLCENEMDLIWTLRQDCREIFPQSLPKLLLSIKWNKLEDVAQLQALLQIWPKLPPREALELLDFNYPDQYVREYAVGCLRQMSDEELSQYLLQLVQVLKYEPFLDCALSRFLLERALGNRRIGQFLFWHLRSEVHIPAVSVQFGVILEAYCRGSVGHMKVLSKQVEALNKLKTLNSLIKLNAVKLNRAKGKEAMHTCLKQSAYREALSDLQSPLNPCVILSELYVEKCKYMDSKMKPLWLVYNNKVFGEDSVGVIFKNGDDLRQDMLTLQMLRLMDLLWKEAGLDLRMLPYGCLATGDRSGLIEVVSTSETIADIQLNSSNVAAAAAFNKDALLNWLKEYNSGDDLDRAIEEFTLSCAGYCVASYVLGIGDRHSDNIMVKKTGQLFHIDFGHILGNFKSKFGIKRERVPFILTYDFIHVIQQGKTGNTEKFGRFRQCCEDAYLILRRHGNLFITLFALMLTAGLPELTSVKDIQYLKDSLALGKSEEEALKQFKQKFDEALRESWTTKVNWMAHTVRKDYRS
T2 sequence (P27986 whole entry partner): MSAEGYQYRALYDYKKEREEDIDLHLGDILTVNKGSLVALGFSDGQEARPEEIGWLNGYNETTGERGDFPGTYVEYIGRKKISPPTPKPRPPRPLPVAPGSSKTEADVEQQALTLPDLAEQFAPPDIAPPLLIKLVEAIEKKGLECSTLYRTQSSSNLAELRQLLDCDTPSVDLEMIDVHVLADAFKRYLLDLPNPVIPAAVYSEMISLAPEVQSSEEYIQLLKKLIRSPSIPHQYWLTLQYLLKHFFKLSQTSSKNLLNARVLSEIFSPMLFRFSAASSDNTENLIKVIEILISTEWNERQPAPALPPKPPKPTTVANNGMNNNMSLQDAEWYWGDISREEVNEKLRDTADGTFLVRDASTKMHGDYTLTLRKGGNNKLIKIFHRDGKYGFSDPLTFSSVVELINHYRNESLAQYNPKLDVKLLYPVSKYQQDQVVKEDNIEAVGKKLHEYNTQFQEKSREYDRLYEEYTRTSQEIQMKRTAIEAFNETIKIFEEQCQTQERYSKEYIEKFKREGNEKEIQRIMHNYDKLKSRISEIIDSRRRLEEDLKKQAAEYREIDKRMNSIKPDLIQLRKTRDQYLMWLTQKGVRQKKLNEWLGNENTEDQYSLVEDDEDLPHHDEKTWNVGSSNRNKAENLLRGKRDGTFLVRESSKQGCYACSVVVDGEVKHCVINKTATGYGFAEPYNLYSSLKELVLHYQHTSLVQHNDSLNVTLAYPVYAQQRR
The assay can be described thus: In vitro PI3 kinase enzyme assay (beta), ATP loss, bioluminescence.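 Further: purified p110β/p85 heterodimer with PtdIns(4,5)P2 as acceptor, incubated at room temperature, leftover ATP read by luminescence, inhibition scaled to compound-free wells with and without enzyme.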 It is filed as biochemical. The following applies: read-out: PI3Kβ ATP loss IC50.

T1 sequence (P42336 whole entry, species assumed): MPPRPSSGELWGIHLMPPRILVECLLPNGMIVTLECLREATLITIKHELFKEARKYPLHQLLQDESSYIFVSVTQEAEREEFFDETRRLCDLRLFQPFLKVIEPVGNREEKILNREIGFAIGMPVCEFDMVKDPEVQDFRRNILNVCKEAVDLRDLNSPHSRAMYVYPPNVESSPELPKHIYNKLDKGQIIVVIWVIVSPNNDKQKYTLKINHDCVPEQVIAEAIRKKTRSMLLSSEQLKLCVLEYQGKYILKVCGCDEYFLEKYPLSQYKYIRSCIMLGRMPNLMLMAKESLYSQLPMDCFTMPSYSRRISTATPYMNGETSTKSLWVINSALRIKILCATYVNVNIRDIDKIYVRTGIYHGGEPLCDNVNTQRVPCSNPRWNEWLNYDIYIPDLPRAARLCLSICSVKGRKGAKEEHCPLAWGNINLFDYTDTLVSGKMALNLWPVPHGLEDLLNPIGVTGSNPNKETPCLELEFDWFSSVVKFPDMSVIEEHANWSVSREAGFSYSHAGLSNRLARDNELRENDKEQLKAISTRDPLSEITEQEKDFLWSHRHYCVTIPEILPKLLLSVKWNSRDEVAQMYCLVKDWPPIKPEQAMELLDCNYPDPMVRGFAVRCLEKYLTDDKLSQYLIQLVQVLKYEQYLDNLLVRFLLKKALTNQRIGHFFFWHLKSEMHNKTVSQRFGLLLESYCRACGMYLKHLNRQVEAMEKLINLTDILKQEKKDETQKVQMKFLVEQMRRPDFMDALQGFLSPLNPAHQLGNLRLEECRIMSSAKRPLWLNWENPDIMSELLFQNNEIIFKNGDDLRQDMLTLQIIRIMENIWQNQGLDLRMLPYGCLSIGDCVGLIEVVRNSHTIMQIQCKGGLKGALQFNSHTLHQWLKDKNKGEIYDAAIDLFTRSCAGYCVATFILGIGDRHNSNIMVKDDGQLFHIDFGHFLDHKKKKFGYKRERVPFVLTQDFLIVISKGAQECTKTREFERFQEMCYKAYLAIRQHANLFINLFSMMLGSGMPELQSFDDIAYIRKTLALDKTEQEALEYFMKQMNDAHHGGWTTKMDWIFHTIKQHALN
T1 sequence (P27986 whole entry partner, species assumed): as the sequence (P27986 whole entry partner) above
Procedure for PI3K β: Full length p110 subunits of PI3K α, β and δ, N-terminally labeled with polyHis tag, were co-expressed with p85 in baculovirus expression vectors in sf9 insect cells. P110/p85 heterodimers were purified by sequential Ni-NTA, Q-HP, and Superdex-100 chromatography. Purified α, β and δ isozymes were stored at −20° C. in 20 mM Tris, pH 8, 0.2M NaCl, 50% glycerol, 5 mM DTT, 2 mM Na cholate.
PI3K enzyme assays (alpha, beta, delta and gamma) were performed in 25 mL with the above final concentrations of components in white polypropylene plates (Costar catalogue #3355). Phosphatidyl inositol phosphoacceptor, PtdIns(4,5)P2 (eg. P4508) was obtained from Echelon Biosciences. The ATPase activity of the alpha and gamma isozymes was not greatly stimulated by PtdIns(4,5)P2 under these conditions and was therefore omitted from the assay of these isozymes. Test compounds were dissolved in DMSO and diluted with three-fold serial dilutions. The compound in DMSO (1 μL) was added per test well, and the inhibition relative to reactions containing no compound, with and without enzyme was determined. After assay incubation at RT, the reaction was stopped and residual ATP determined by addition of an equal volume of a commercial ATP bioluminescence kit (Perkin Elmer EasyLite) according to the manufacturer's instructions, and detected using an Analyst GT luminometer.

Turning to `COc1ccc(-c2cccc3nc(NC(C)=O)sc23)cc1F` [Example 94], the IC50 on PI3K α came out at 998 nM; on PI3K β, 24800 nM.
For `COc1cccc(Sc2nccc(-c3ccc4nc(NC(C)=O)sc4c3)n2)c1` [Example 41, N-(6-(2-((3-methoxyphenyl)sulfanyl)-4-pyrimidinyl)-1,3-benzothiazol-2-yl)acetamide], the IC50 was determined as 192 nM on PI3K α and 126 nM at PI3K β.
With `CC(=O)Nc1nc2ccc(-c3ccnc(O)n3)cc2s1` [Example 53, N-(6-(2-hydroxy-4-pyrimidinyl)-1,3-benzothiazol-2-yl)acetamide], the results for the IC50 on PI3K α and on PI3K β were 7980 nM and over 40000 nM, respectively.
For the compound `CC(=O)Nc1nc2ccc(-c3ccnc(Sc4ccc(Cl)cc4)n3)cc2s1` [Example 138, N-(6-(2-((4-chlorophenyl)sulfanyl)-4-pyrimidinyl)-1,3-benzothiazol-2-yl)acetamide], the 50% inhibitory concentration (IC50) on PI3K α was 69.9 nM; on PI3K β, 2880 nM.
Turning to `CC(=O)Nc1nc2ccc(-c3ccnc(OCc4ccc5[nH]ccc5c4)n3)cc2s1` [Example 24, N-(6-(2-(1H-indol-5-ylmethoxy)-4-pyrimidinyl)-1,3-benzothiazol-2-yl)acetamide], the results for the IC50 at PI3K α and at PI3K β were 8030 nM and 8860 nM, respectively.
For `CC(=O)Nc1nc2ccc(-c3cccc4sc(=O)[nH]c34)cc2s1` [Example 98, N-(6-(2-oxo-2,3-Dihydrobenzo[d]thiazol-4-yl)benzo[d]thiazol-2-yl)acetamide] the same measures were 3140 nM and 10000 nM.
As to `CC(=O)Nc1nc2ccc(-c3ccnc(Nc4ccccn4)n3)cc2s1` [Example 264, N-(6-(2-(pyridin-2-ylamino)pyrimidin-4-yl)benzo[d]thiazol-2-yl)acetamide], the figures for the IC50 at PI3K α and on PI3K β were 2490 nM and over 40000 nM, respectively.
In the case of `CC(=O)Nc1nc2ccc(-c3ccnc(Cc4ccccc4)n3)cc2s1` [Example 13, N-(6-(2-Benzylpyrimidin-4-yl)benzo[d]thiazol-2-yl)acetamide], the IC50 was 4480 nM at PI3K α and over 40000 nM on PI3K β.
With `CC(=O)Nc1nc2ccc(-c3cnc(Cl)c(N(C(=O)OC(C)(C)C)C(=O)OC(C)(C)C)c3)cc2s1` [Example 277, Bis(tert-butyl) 5-(2-acetamidobenzo[d]thiazol-6-yl)-2-chloropyridin-3-ylcarbamate], the half-inhibitory concentration (IC50) came out at 2190 nM at PI3K α and 4800 nM on PI3K β.
As for `CC(=O)Nc1nc2ccc(-c3ccnc(Sc4ccc(C)cc4C)n3)cc2s1` [Example 122, N-(6-(2-((2,4-dimethylphenyl)sulfanyl)-4-pyrimidinyl)-1,3-benzothiazol-2-yl)acetamide], the figures for the IC50 on PI3K α and on PI3K β were 19.6 nM and 260 nM, respectively.
As for `CC(=O)Nc1nc2ccc(-c3csc(S(=O)(=O)c4ccccc4)n3)cc2s1` [Example 64, N-(6-(2-(phenylsulfonyl)thiazol-4-yl)benzo[d]thiazol-2-yl)acetamide], the IC50 at PI3K α is 846 nM; at PI3K β it was over 40000 nM.
With `CC(=O)Nc1ccc(S(=O)(=O)Nc2nccc(-c3ccc4nc(NC(C)=O)sc4c3)n2)cc1` [Example 86, N-(4-((4-(2-(acetylamino)-1,3-benzothiazol-6-yl)-2-pyrimidinyl)sulfamoyl)phenyl)acetamide], the IC50 on PI3K α was determined as 319 nM; at PI3K β, 10200 nM.
For `CC(=O)Nc1nc2ccc(-c3ccnc(N4CCCC4c4ccccc4C)n3)cc2s1` (racemic) [Example 262, N-(6-(2-(2-o-tolylpyrrolidin-1-yl)pyrimidin-4-yl)benzo[d]thiazol-2-yl)acetamide] the same measures were 1560 nM and 777 nM.
In the case of `CN(C)c1cc(-c2ccc3nc(NS(C)(=O)=O)sc3c2)cnc1Cl` [Example 276, N-(6-(6-chloro-5-(dimethylamino)pyridin-3-yl)benzo[d]thiazol-2-yl)methanesulfonamide], the results for the IC50 on PI3K α and on PI3K β were 1720 nM and 29900 nM, respectively.
For the compound `O=C(Nc1nc2ccc(-c3ccnc(OCc4ccccc4)n3)cc2s1)c1ccccc1` [Example 58, N-(6-(2-(benzyloxy)-4-pyrimidinyl)-1,3-benzothiazol-2-yl)benzamide], the values for the IC50 at PI3K α and at PI3K β were over 40000 nM and 3930 nM, respectively.
In the same order, the values of `CC(C)(C)OC(=O)Nc1nc2ccc(-c3nnc(NS(=O)(=O)c4ccc(F)cc4)o3)cc2s1` [Example 167, tert-Butyl 6-(5-(4-fluorophenylsulfonamido)-1,3,4-oxadiazol-2-yl)benzo[d]thiazol-2-ylcarbamate] are 663 nM and 5800 nM.
Consider `CC(=O)Nc1nc2ccc(-c3ccnc(NS(=O)(=O)c4cccnc4)n3)cc2s1` [Example 79, N-(6-(2-(pyridine-5-sulfonamido)pyrimidin-4-yl)benzo[d]thiazol-2-yl)acetamide], for which the IC50 on PI3K α came to 60.6 nM; on PI3K β, 849 nM.
With `COCCOCOc1cc(-c2ccc3nc(NC(C)=O)sc3c2)cnc1C(F)(F)F` [Example 293, N-(6-(5-((2-methoxyethoxy)methoxy)-6-(trifluoromethyl)pyridin-3-yl)benzo[d]thiazol-2-yl)acetamide], the 50% inhibitory concentration (IC50) on PI3K α was 211 nM; at PI3K β, over 40000 nM.
For `CC(=O)Nc1nc2ccc(-c3ccnc(N4CCCCC4)n3)cc2s1` [Example 263, N-(6-(2-(piperidin-1-yl)pyrimidin-4-yl)benzo[d]thiazol-2-yl)acetamide], the IC50 on PI3K α was 1940 nM; at PI3K β, over 40000 nM.
As for `CC(C)(O)C(=O)Nc1nc2ccc(-c3ccnc(OCc4ccccc4)n3)cc2s1` [Example 55, N-(6-(2-(benzyloxy)-4-pyrimidinyl)-1,3-benzothiazol-2-yl)-2-hydroxy-2-methylpropanamide], the values for the IC50 on PI3K α and at PI3K β were 26700 nM and 7750 nM, respectively.
In the same order, the values of `CC(=O)Nc1nc2ccc(-c3cncc(OCCN4CCC(F)(F)C4=O)c3)cc2s1` [Example 254] are 1180 nM and 24100 nM.
For `COc1ccc(S(=O)(=O)c2ncc(-c3ccc4nc(NC(C)=O)sc4c3)s2)cc1` [Example 61, N-(6-(2-(4-methoxyphenylsulfonyl)thiazol-5-yl)benzo[d]thiazol-2-yl)acetamide], the results for the IC50 on PI3K α and at PI3K β were 38800 nM and 31000 nM, respectively.
Regarding `CC(=O)Nc1nc2ccc(-c3cnc(Cl)c(OC(C)C#N)c3)cc2s1` (stereo not drawn) [Example 290, N-(6-(6-chloro-5-(1-cyanoethoxy)pyridin-3-yl)benzo[d]thiazol-2-yl)acetamide], the IC50 worked out at 111 nM at PI3K α and 747 nM at PI3K β.
As to `CC(=O)Nc1nc2ccc(-c3ccnc(Sc4cc(C)ccc4C)n3)cc2s1` [Example 123, N-(6-(2-((2,5-dimethylphenyl)sulfanyl)-4-pyrimidinyl)-1,3-benzothiazol-2-yl)acetamide], the IC50 at PI3K α was 23.5 nM; at PI3K β it was 537 nM.
Consider `CC(=O)Nc1nc2ccc(-c3cncc(OCCN4CCC(C)(C)C4=O)c3)cc2s1` [Example 252], for which the IC50 on PI3K α was determined as 2920 nM; on PI3K β, 45000 nM.
In the same order, the values of `CC(=O)Nc1nc2ccc(-c3cccc(S(=O)(=O)c4ccccc4)n3)cc2s1` [Example 65, N-(6-(6-(phenylsulfonyl)pyridin-2-yl)benzo[d]thiazol-2-yl)acetamide] are 221 nM and over 40000 nM.
Consider `Oc1cc(-c2ccc3ncsc3c2)cnc1Cl` [Example 334, 5-(1,3-benzothiazol-6-yl)-2-chloro-3-pyridinol], for which the concentration for half-maximal inhibition (IC50) on PI3K α came out at 116 nM; at PI3K β, 1350 nM.
In the case of `CC(=O)Nc1nc2ccc(-c3ccnc(OCC4CCN(C)CC4)n3)cc2s1` [Example 25, N-(6-(2-((1-methyl-4-piperidinyl)methoxy)-4-pyrimidinyl)-1,3-benzothiazol-2-yl)acetamide], the IC50 on PI3K α worked out at 10700 nM; at PI3K β, 26700 nM.
Consider `CC(=O)Nc1nc2ccc(-c3cccc(S(=O)(=O)c4cccc(F)c4)n3)cc2s1` [Example 67, N-(6-(6-((3-fluorophenyl)sulfonyl)-2-pyridinyl)-1,3-benzothiazol-2-yl)acetamide], for which the IC50 at PI3K α stood at 300 nM; on PI3K β, 3350 nM.
As for `CC(=O)Nc1nc2ccc(-c3ccnc(N(C)S(=O)(=O)c4cn(C)cn4)n3)cc2s1` [Example 211, N-(6-(2-(N,1-dimethyl-1H-imidazole-4-sulfonamido)pyrimidin-4-yl)benzo[d]thiazol-2-yl)acetamide], the concentration for half-maximal inhibition (IC50) was determined as 929 nM at PI3K α and 3930 nM at PI3K β.
With `CC(=O)Nc1nc2ccc(-c3ccnc(N(C)S(=O)(=O)c4ccc5ncccc5c4)n3)cc2s1` [Example 204, N-(6-(2-(N-methylquinoline-6-sulfonamido)pyrimidin-4-yl)benzo[d]thiazol-2-yl)acetamide], the IC50 was found to be 354 nM at PI3K α and 404 nM on PI3K β.
`CC(=O)Nc1nc2ccc(-c3ccnc(N4CCOCC4)n3)cc2s1` [Example 160, N-(6-(2-(4-morpholinyl)-4-pyrimidinyl)-1,3-benzothiazol-2-yl)acetamide]: the values for the IC50 at PI3K α and at PI3K β were 2740 nM and 18900 nM, respectively.
On to `CC(=O)Nc1nc2ccc(-c3ccnc(Sc4ccc(Br)cc4)n3)cc2s1` [Example 139, N-(6-(2-((4-bromophenyl)sulfanyl)-4-pyrimidinyl)-1,3-benzothiazol-2-yl)acetamide], for which the figures for the IC50 on PI3K α and on PI3K β were 80.7 nM and 1050 nM, respectively.
`CC(=O)Nc1nc2ccc(-c3cncc(OCCN4CCOCC4)c3)cc2s1` [Example 230, N-(6-(5-(2-morpholinoethoxy)pyridin-3-yl)benzo[d]thiazol-2-yl)acetamide]: the concentration for half-maximal inhibition (IC50) on PI3K α was 2790 nM; at PI3K β it was 19300 nM.
For the compound `CC(=O)Nc1nc2ccc(-c3cnc(C)c(N)c3)cc2s1` [Example 142, N-(6-(5-amino-6-methyl-3-pyridinyl)-1,3-benzothiazol-2-yl)acetamide], the values for the half-maximal inhibitory concentration (IC50) on PI3K α and on PI3K β were 111 nM and over 40000 nM, respectively.
As to `Cc1ccc(S(=O)(=O)Nc2nnc(-c3ccc4nc(N)sc4c3)o2)cc1` [Example 165, N-(5-(2-Aminobenzo[d]thiazol-6-yl)-1,3,4-oxadiazol-2-yl)-4-methylbenzenesulfonamide], the concentration for half-maximal inhibition (IC50) came to 196 nM on PI3K α and 170 nM at PI3K β.
